Values joined by “and” are separate entries in the source; they are usually repeats but may differ in a detail not shown here. Equal values may be shown once. “Also recorded” adds a separate entry of the source. Read-outs that look alike come from different tables or passages of the source.

In test [1] the target is T1, B. anthracis OSB-CoA synthetase (Bacillus anthracis, UniProt Q81K97). Briefly: biochemical. It counts as biochemical. The conditions noted are these: for Km: read-out: Apparent Km.
Test [2] concerns the target T1, B. anthracis OSB-CoA synthetase. As to the kind of experiment: biochemical. It counts as binding.
Test [3] has the same target. As to the kind of experiment: biochemical. The format is biochemical. The conditions noted are these: for Km: read-out: Km of varied substrate.
The next test concerns B. anthracis ∆ANR strain. It counts as cell-based, Bacillus anthracis.

T1 sequence (Q81K97 whole entry, looked up): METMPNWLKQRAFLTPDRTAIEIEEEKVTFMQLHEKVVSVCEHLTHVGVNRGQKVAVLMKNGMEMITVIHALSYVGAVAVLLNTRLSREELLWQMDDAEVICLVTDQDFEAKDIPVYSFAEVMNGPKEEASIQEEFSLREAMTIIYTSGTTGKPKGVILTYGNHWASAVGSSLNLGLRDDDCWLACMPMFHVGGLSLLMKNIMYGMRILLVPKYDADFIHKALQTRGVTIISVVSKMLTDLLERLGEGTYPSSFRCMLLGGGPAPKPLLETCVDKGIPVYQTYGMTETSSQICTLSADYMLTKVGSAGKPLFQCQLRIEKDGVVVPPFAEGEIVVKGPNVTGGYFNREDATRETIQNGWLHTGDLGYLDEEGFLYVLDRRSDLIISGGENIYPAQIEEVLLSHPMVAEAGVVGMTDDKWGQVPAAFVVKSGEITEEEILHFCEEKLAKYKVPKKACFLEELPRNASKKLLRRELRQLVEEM

Regarding `O=C(O)CCC(=O)c1ccccc1C(F)(F)F` [Compound 5, 4-(2-trifluoromethylphenyl)-4-oxobutyric acid], in test [1], the “reduction in kcat compared to OSB” value came out at 10 fold. Also, in test [1] (read-out: residual activity as substrate), the remaining activity at 1000 µM was found to be 5.8%.

One may read the kcat as the number of substrate molecules converted per active site and unit of time at saturation. For orientation: Km means the concentration of substrate that gives half-maximal velocity. Consider `O=C(O)CCC(=O)c1ccccc1C(=O)O` [OSB, o-succinylbenzoate], for which, in test [1] (pH 7.5, 21°C), the kcat stood at 2.58 ± 0.06 s⁻¹ and the Km worked out at 21.9 ± 2 µM. In addition, the “binding to free enzyme” value in test [2] is “no significant binding”. Also, the Km in test [3] is 3.6 µM and 2.8 µM.

For the molecule `O=C(O)CCC(=O)c1ccccc1C(F)(F)F`, in test [1], the “decrease in kcat/Km compared to OSB” value stood at 100 fold.

As a reminder, the Ki is the dissociation constant of the complex between target and ligand, obtained from inhibition or displacement. Read a low Ki as higher affinity. With `CC(C)(COP(=O)(O)OP(=O)(O)OC[C@H]1O[C@@H](n2cnc3c(N)ncnc32)[C@H](O)[C@@H]1OP(=O)(O)O)[C@@H](O)C(=O)NCCC(=O)NCCSC(=O)c1ccccc1` [Benzoyl-CoA, benzoyl-CoA], in test [3], the Inhibition pattern result is “mixed-type”; the “Ki / αKi values, range in words” value is recorded as “millimolar range”; the αKi is 15.3 ± 2.6 mM; affinity was put at a Ki of 3000 ± 500 µM.

In general, Kd refers to the concentration at which binding is half-saturated. On to `Nc1ncnc2c1ncn2[C@@H]1O[C@H](COP(=O)(O)OP(=O)(O)OP(=O)(O)O)[C@@H](O)[C@H]1O` [ATP], for which, in test [1] (pH 7.5, 21°C), the kcat is 2.55 ± 0.0533 s⁻¹ and the Km was 26.8 ± 2.7 µM. In test [2], the Kd is 131 ± 22 µM and the “binding to free enzyme” value was “No significant binding”.

Consider `CC(C)(COP(=O)(O)OP(=O)(O)OC[C@H]1O[C@@H](n2cnc3c(N)ncnc32)[C@H](O)[C@@H]1OP(=O)(O)O)[C@@H](O)C(=O)NCCC(=O)NCCS` [CoA], for which, in test [1] (pH 7.5), the kcat was found to be 2.6 ± 0.075 s⁻¹ and the Michaelis-Menten constant (Km) came out at 304 ± 22.1 µM. Besides, the Km in test [1] is 279 µM and 194 µM and 269 µM and 231 µM. For the same molecule, in test [2], the “binding to enzyme-Mg^2+ATP complex” value is “no significant binding” and the “binding to free enzyme” value is “no significant binding”. In addition, the Km in test [3] is 49.9 µM and 66.2 µM and 39.3 µM.

On to `Nc1ncnc2c1ncn2[C@@H]1O[C@H](COP(=O)(O)O)[C@@H](O)[C@H]1O` [AMP], for which, in test [3], the “Ki / αKi values, range in words” value is reported as “millimolar range”; the Ki was 3600 µM and 4600 µM.

Turning to `Nc1ncnc2c1ncn2[C@@H]1O[C@H](COS(=O)(=O)NC(=O)CCC(=O)c2ccccc2C(F)(F)F)[C@@H](O)[C@H]1O` [TFMP-butyl-AMS, 5’-O-(N-(2-trifluoromethylphenyl)-4-oxobutyl) adenosine sulfonamide], in test [3], the “Ki / αKi values, range in words” value is reported as “low micromolar; also recorded: lower micromolar range”; the “αKi (affinity to enzyme-ATP complex)” value is 108 ± 17.0 µM; the Ki was 5.6 µM and 5.2 µM. For the same molecule, the whole cell activity entry in the test on B. anthracis ∆ANR strain is reported as “limited whole cell activity”.
